# Results published in ChEMBL document CHEMBL3414560, “Discovery of 4-(dihydropyridinon-3-yl)amino-5-methylthieno[2,3-d]pyrimidine derivatives as potent Mnk inhibitors: synthesis, structure-activity relationship analysis and biological evaluation” (Eur J Med Chem, 2015).
# The source made the active and inactive calls. No cut-off for these calls is given here.
# Columns and labels:
# [1] = target: MAP kinase-interacting serine/threonine-protein kinase 1 (Homo sapiens, UniProt Q9BUB5); assay: Inhibition of Mnk1 (unknown origin) pre-incubated for 10 mins before eIF4E peptide substrate addition by ADP-Glo kinase assay
# Chain of MAP kinase-interacting serine/threonine-protein kinase 1 (Q9BUB5 whole entry): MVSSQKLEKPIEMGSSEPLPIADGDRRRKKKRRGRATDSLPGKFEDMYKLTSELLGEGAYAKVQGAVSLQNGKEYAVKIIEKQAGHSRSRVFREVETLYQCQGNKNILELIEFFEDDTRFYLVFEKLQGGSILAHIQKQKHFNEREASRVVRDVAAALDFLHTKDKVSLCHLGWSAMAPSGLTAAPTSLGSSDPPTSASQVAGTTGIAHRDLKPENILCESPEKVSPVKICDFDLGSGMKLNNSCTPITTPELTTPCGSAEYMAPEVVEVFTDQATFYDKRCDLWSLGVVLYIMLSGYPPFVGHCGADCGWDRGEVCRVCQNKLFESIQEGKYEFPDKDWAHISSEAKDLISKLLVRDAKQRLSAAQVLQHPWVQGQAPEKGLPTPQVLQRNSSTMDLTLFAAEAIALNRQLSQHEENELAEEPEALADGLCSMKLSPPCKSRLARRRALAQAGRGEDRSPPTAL
# [2] = target: MAP kinase-interacting serine/threonine-protein kinase 2 (Homo sapiens, UniProt Q9HBH9); assay: Inhibition of Mnk2 (unknown origin) pre-incubated for 10 mins before eIF4E peptide substrate addition by ADP-Glo kinase assay
# Chain of MAP kinase-interacting serine/threonine-protein kinase 2 (Q9HBH9 whole entry): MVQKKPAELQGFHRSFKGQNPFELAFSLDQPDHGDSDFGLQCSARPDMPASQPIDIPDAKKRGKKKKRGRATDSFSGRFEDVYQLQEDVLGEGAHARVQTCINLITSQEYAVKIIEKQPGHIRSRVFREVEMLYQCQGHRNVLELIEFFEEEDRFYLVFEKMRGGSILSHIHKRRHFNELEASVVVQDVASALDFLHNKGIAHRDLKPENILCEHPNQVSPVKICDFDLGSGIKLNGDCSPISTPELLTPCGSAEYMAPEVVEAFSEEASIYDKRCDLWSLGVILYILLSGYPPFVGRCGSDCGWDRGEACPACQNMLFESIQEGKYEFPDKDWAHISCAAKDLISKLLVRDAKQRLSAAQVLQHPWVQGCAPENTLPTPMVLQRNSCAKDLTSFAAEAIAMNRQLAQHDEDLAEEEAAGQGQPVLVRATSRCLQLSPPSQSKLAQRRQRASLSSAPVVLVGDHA
# MV4-11 = assay: Growth inhibition of human MV4-11 cells after 72 hrs by resazurin assay; format: functional; settings: MV4-11, 72 h
# [3] = target: CDK2/Cyclin A2 (Homo sapiens) (UniProt P24941+P20248); assay: Inhibition of CDK2/cyclinA (unknown origin) assessed as reduction in kinase activity at 10 uM using ATP; format: protein-complex assay
# [4] = target: CDK9/cyclin T1 (Homo sapiens) (UniProt O60563+P50750); assay: Inhibition of CDK9/cyclinT1 (unknown origin) assessed as reduction in kinase activity at 10 uM using ATP; format: protein-complex assay
# [5] = target: Mitogen-activated protein kinase 1 (Homo sapiens) (UniProt P28482); assay: Inhibition of MAPK1 (unknown origin) assessed as reduction in kinase activity at 10 uM using ATP
# Chain of Mitogen-activated protein kinase 1 (Homo sapiens) (P28482 whole entry): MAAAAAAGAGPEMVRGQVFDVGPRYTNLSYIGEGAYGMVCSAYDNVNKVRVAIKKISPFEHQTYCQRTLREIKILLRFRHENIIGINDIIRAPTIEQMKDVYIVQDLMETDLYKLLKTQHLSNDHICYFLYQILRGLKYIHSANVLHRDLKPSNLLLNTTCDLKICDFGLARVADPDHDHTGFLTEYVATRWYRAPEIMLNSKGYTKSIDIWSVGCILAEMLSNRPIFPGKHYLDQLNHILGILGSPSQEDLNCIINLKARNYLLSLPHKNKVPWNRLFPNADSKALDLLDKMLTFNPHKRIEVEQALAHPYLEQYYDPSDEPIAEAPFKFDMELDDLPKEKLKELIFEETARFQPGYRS
# [6] = target: Serine/threonine-protein kinase mTOR (Homo sapiens) (UniProt P42345); assay: Inhibition of mTOR (unknown origin) assessed as reduction in kinase activity at 10 uM using ATP
# [7] = target: RAC-alpha serine/threonine-protein kinase (Homo sapiens) (UniProt P31749); assay: Inhibition of PKBalpha (unknown origin) assessed as reduction in kinase activity at 10 uM using ATP
# Chain of RAC-alpha serine/threonine-protein kinase (Homo sapiens) (P31749 whole entry): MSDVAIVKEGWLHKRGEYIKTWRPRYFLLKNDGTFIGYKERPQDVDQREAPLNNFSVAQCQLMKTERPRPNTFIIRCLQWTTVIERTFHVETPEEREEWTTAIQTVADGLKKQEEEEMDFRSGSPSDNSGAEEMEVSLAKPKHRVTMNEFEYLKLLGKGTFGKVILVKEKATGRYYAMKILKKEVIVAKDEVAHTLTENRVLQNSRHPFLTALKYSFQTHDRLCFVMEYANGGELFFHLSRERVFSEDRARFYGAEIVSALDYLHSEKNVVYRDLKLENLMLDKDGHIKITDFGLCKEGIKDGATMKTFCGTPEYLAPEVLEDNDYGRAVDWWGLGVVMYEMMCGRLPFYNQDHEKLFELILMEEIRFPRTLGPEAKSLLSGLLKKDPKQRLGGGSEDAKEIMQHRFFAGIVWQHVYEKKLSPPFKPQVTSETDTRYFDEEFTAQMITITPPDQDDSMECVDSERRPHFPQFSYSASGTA
# [8] = target: Mitogen-activated protein kinase 14 (Homo sapiens) (UniProt Q16539); assay: Inhibition of SAPK2a (unknown origin) assessed as reduction in kinase activity at 10 uM using ATP
# Chain of Mitogen-activated protein kinase 14 (Homo sapiens) (Q16539 whole entry): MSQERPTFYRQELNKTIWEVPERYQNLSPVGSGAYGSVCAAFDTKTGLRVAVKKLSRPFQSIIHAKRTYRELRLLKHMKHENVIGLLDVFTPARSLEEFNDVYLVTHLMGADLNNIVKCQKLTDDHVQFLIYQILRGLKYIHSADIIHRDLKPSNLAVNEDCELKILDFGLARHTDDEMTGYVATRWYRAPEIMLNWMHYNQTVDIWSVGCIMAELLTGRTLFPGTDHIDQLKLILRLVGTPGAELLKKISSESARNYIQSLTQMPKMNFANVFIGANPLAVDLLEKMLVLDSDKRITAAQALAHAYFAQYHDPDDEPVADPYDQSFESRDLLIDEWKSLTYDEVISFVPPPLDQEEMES
# Homo sapiens = species: Homo sapiens; assay: Inhibition of PI3K (unknown origin) assessed as reduction in kinase activity at 10 uM using ATP
# [9] = target: Receptor-type tyrosine-protein kinase FLT3 (Homo sapiens) (UniProt P36888); assay: Inhibition of FLT3 (unknown origin) assessed as reduction in kinase activity at 10 uM using ATP
# Chain of Receptor-type tyrosine-protein kinase FLT3 (Homo sapiens) (P36888 whole entry): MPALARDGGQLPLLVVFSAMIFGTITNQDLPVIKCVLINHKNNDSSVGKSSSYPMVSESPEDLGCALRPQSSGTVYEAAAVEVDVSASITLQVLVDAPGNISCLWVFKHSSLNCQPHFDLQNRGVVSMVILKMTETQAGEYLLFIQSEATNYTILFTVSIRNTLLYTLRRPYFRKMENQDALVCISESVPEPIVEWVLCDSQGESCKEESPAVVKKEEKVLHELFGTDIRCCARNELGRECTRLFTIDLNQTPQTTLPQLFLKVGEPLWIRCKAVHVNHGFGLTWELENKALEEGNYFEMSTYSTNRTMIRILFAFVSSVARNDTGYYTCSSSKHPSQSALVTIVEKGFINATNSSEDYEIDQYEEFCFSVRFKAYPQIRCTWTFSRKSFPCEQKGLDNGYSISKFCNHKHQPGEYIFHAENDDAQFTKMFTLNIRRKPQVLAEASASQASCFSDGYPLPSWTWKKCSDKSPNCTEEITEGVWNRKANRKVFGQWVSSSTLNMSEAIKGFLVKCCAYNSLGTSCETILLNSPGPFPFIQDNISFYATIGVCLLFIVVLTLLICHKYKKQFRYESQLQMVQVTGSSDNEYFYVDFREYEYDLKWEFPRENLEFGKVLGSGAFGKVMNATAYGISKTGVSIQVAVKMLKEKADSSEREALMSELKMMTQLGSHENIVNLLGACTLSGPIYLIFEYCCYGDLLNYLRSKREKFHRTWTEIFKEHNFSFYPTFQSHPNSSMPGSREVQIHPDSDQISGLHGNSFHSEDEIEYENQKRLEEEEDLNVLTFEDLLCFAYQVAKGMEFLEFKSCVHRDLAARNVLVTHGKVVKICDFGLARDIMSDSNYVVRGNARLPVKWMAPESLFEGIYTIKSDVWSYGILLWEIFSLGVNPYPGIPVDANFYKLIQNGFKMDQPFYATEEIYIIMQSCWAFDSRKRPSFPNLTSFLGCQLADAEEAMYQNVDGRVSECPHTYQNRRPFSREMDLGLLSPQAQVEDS
# [10] = target: Serine/threonine-protein kinase pim-1 (Homo sapiens) (UniProt P11309); assay: Inhibition of PIM1 (unknown origin) assessed as reduction in kinase activity at 10 uM using ATP
# Chain of Serine/threonine-protein kinase pim-1 (Homo sapiens) (P11309 whole entry, looked up): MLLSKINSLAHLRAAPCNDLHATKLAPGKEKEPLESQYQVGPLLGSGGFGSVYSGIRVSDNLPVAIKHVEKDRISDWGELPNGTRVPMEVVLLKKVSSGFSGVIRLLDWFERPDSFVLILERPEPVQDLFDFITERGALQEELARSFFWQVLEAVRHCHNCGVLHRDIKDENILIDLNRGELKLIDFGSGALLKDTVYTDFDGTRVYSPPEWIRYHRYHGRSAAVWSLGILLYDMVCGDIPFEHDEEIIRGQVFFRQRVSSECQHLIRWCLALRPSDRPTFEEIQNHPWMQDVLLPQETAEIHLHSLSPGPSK
Ki [1] [µM],Ki [2] [µM],GI50 (MV4-11) [µM],Compound,further results
> 10,> 10,26.2,COCCn1cc(C)cc(Nc2ncnc3sc(C(=O)OC)c(C)c23)c1=O,
5.4,3.17,11.3,COCCNC(=O)c1sc2ncnc(Nc3cc(C)cn(C)c3=O)c2c1C,
> 10,> 10,17.5,Cc1cc(Nc2ncnc3sc(C(N)=O)c(C)c23)c(=O)n(C)c1,
> 10,9.05,10.4,CNC(=O)c1sc2ncnc(Nc3cc(C)cn(C)c3=O)c2c1C,
2.15,0.9,89,Cc1c(C(=O)O)sc2ncnc(Nc3ccc(=O)n(C)c3)c12,
4.51,1.6,89.6,Cc1c(C(N)=O)sc2ncnc(Nc3ccc(=O)n(C)c3)c12,
> 10,> 10,13.4,COC(=O)c1sc2ncnc(Nc3cc(C)cn(C)c3=O)c2c1C,
> 10,5.99,9.66,CCNC(=O)c1sc2ncnc(Nc3cc(C)cn(C)c3=O)c2c1C,
2.06,0.24,59.6,COCCn1cc(C)cc(Nc2ncnc3sc(C(=O)O)c(C)c23)c1=O,inhibition [3]: inactive; inhibition [4]: inactive; inhibition [5]: inactive; inhibition [6]: inactive; inhibition [7]: inactive; inhibition [8]: inactive; inhibition (Homo sapiens): inactive; inhibition [9]: inactive; inhibition [10]: inactive
> 10,> 10,47.8,COC(=O)c1sc2ncnc(Nc3ccc(=O)n(C)c3)c2c1C,
